Activity calls are given as the source filed them. The rule behind the calls is not given here. Some results are limits rather than exact numbers.

Test [1] concerns MCF7. The test can be described thus: Cytotoxicity against human MCF7 cells after 72 hrs by MTT assay. It is filed as functional, cell-based. Particulars: MCF7, 72 h. In general terms: Formazan colour is commonly taken as a measure of viable cells.
For test [2], the target named is L-lactate dehydrogenase A chain (Homo sapiens, UniProt P00338). Nature of the test: Inhibition of human LDHA using pyruvate as substrate assessed as disappearance of NADH preincubated for 10 mins followed by substrate addition every 2.5 secs for 10 mins by fluorescence analysis.
Test [3] has as its system MCF7. The test can be described thus: Reduction in lactate production in human MCF7 cells at 10 uM after 12 hrs. It is filed as functional, cell-based.
For test [4], the system named is MCF7. The test can be described thus: Increase in oxygen consumption rate in human MCF7 cells at 2 to 10 uM after 12 hrs by extracellular flux analysis. It counts as functional, cell-based.
The test system of test [5] is MCF7. Nature of the test: Decrease in extracellular acidfication rate in human MCF7 cells at 2 to 10 uM after 12 hrs by extracellular flux analysis. It is filed as functional, cell-based.
Test [6] has as its system MCF7. Nature of the test: Decrease in proton production rate in human MCF7 cells at 2 to 10 uM after 12 hrs by extracellular flux analysis. It is filed as functional, cell-based.
Test [7] has as its system MCF7. The test can be described thus: Reduction in lactate production in human MCF7 cells at 5 uM after 12 hrs. It is filed as functional, cell-based.
The subject of test [8] is MCF7. Nature of the test: Reduction in lactate production in human MCF7 cells at 5 to 10 uM after 12 hrs. It is filed as functional, cell-based.

For the compound `Cn1c(=O)c2c(nc(NCc3ccccc3)n2C[C@@H](O)COc2ccc(Cl)cc2)n(C)c1=O`, the IC50 (usually the point on the concentration scale where inhibition reaches its midpoint) in the test with MCF7 [1] turned out to be 3.5 µM; in test [2], 2.3 µM.

For the compound `COc1ncc(-c2ccc3c(Nc4cccc(C(=O)O)c4)c(S(N)(=O)=O)cnc3c2)c(OC)n1`, the results for the IC50 (with MCF7 [1]; in test [2]) were more than 30 µM and 4.8 µM, respectively. The result in the test with MCF7 [3] was Active.

Regarding `Cc1nc(C)c(C(=O)OC[C@H]2CCCO2)c(-c2ccccc2C(F)(F)F)c1C(=O)O`, the IC50 with MCF7 [1] came out at 10.8 µM; in test [2], 7.8 µM.

`CCCC(=O)N(c1ccc2oc(C)c(C(=O)OCC)c2c1)S(=O)(=O)c1ccc(OC)cc1`: the figures for the IC50 (with MCF7 [1]; in test [2]) were more than 30 µM and 3.5 µM, respectively.

Consider `Cc1ccccc1OC[C@H](O)Cn1c(NCc2ccccc2)nc2c1c(=O)n(C)c(=O)n2C`, for which the IC50 in the test with MCF7 [1] worked out at 1.54 µM; in test [2], 0.25 µM. For the same compound, the result in the test on MCF7 [4], in the test with MCF7 [7] and in the test on MCF7 [8] was Active. Moreover, the inhibition result with MCF7 [5] and with MCF7 [6] was “Active” each time.

For the origin of these results see ChEMBL document CHEMBL3745616, “Identification of a potent inhibitor targeting human lactate dehydrogenase A and its metabolic modulation for cancer cell line” (Bioorg Med Chem Lett, 2016).
